In patent US20100150985A1, “Dental Implant, Endodontic Instrument, and Dental Filling Material Coated with a Peptide-Based Antimicrobial and Methods of Using and Making the Same” (priority 2008, published 2010):

Experiments:
Staphylococcus aureus = assay: in-vitro assay of immobilized peptide on 316L stainless steel pins; type: cell-based; details: peptide covalently bonded to parylene coated stainless steel pins, after ethylene oxide sterilization; data not shown
Description: Medical standard alloy 316L stainless steel pins were coated with an antimicrobial peptide layer to determine the efficacy of an immobilized antimicrobial peptide. The pins were coated with a tie layer. A parylene coating containing a reactive molecule specific for the N-terminus region of the peptide (“Photopolymer”) was then applied over the tie layer. The peptide WLBU-2 (SEQ ID NO. 179) was applied to the parylene coating and exposed to UV light to facilitate covalent bonding of the peptide with the parylene coating. Parylene coated stainless steel pins and non-coated stainless steel pins were used as controls. All samples and controls were subjected to ethylene oxide sterilization. The coated samples were placed in 75% relative humidity overnight.

[1] = retention of antimicrobial/biological activity after sterilization; details: peptide coated on a substrate, ethylene oxide sterilization
Description: In a useful embodiment of the present invention, the antimicrobial peptides may retain antibacterial activity after a dental device coated with the antimicrobial, peptide is sterilized.

RRWVRRVRRVWRRVVRVVRRWVVRR (RRWVRRVRRVWRRVVRVVRRWVRR; Artificial peptide derived from HIV-1) [WLBU-2, Lytic Base Unit peptide]
efficacy of immobilized antimicrobial peptide (Staphylococcus aureus): efficacy against Staphylococcus aureus
antimicrobial activity after sterilization [1]: retained antimicrobial activity
